Key:
Conditions in all cases: exposure: 6-8 hpf to 5 dpf, scored at 6 dpf
Danio rerio embryo/larva [1] = assay: max % larvae with any abnormality across tested concentrations; max tested concentration (log10 uM): 2; higher = more toxic; extreme values may be limits of the assay
Danio rerio embryo/larva [2] = assay: max % larvae unhatched across tested concentrations; max tested concentration (log10 uM): 2; higher = more toxic
Danio rerio embryo/larva [3] = assay: max % larvae dead across tested concentrations; max tested concentration (log10 uM): 2; higher = more toxic; extreme values may be limits of the assay

| SMILES | max % larvae (Danio rerio embryo/larva [1]) | max % larvae unhatched across tested concentrations (Danio rerio embryo/larva [2]) | max % larvae dead across tested concentrations (Danio rerio embryo/larva [3]) |
| --- | --- | --- | --- |
| O=C(O)C(F)(F)C(F)(F)C(F)(F)OC(F)(C(F)(F)F)C(F)(F)F [Perfluoro-4-isopropoxybutanoic acid] | 0% | 0% | 0% |
| OCC(F)(F)C(F)(F)C(F)(F)C(F)(F)C(F)(F)C(F)F [1H,1H,7H-Dodecafluoro-1-heptanol] | 8.33% | 0% | 0% |
| O=C(O)C(F)(F)C(F)(F)OC(F)(F)F [Perfluoro-3-methoxypropanoic acid] | 16.7% | 0% | 0% |
| C=C(C)C(=O)OCC(F)(F)C(F)(F)C(F)(F)F [(Perfluoropropyl)methyl methacrylate] | 8.33% | 0% | 0% |
| C=CC(=O)OCC(F)(F)C(F)(F)C(F)(F)C(F)(F)C(F)(F)C(F)(F)C(F)(F)F [1H,1H-Perfluorooctyl acrylate] | 0% | 0% | 0% |
| O=C(O)C(F)(F)C(F)(F)C(=O)O [Perfluorobutanedioic acid] | 16.7% | 0% | 16.7% |
| NC(=O)C(F)(F)C(F)(F)C(F)(F)C(F)F [Perfluoropentanamide] | 0% | 0% | 0% |
| O=S(=O)(O)C(F)(F)C(F)(F)C(F)(F)C(F)(F)F [Perfluorobutanesulfonic acid] | 0% | 0% | 0% |
| NC(=O)C(F)(F)C(F)(F)C(F)(F)C(F)(F)C(F)(F)C(F)(F)C(F)(F)F [Perfluorooctanamide] | 0% | 0% | 0% |
| FC(F)(F)C(F)(F)C(F)(F)C(F)(F)CCI [1H,1H,2H,2H-Perfluorohexyl iodide] | 8.33% | 0% | 0% |
| O=S(=O)(O)C(F)(F)C(F)(F)OC(F)(F)C(F)(F)F [Perfluoro-2-ethoxyethanesulfonic acid] | 16.7% | 0% | 0% |
| O=C(O)C(F)(F)C(F)(F)C(F)(F)C(F)(F)C(F)(F)F [Perfluorohexanoic acid] | 0% | 0% | 0% |
| O=C(O)C(F)(F)C(F)(F)C(F)(F)C(F)(F)C(F)(F)C(F)(F)C(F)(F)C(F)F [9H-Perfluorononanoic acid] | 18.8% | 0% | 0% |
| O=C(O)C=CC(F)(C(F)(F)F)C(F)(F)F [3-(Perfluoroisopropyl)-2-propenoic acid] | 16.7% | 0% | 0% |
| O=P(O)(O)OCCC(F)(F)C(F)(F)C(F)(F)C(F)(F)C(F)(F)C(F)(F)F [6:2 Fluorotelomer phosphate monoester] | 0% | 0% | 0% |
| C=C(C)C(=O)OCCC(F)(F)C(F)(F)C(F)(F)C(F)(F)C(F)(F)C(F)(F)C(F)(F)C(F)(F)F [2-(Perfluorooctyl)ethyl methacrylate] | 0% | 0% | 0% |
| NC(=O)C(F)(F)C(F)(F)C(F)(F)C(F)(F)C(N)=O [Octafluoroadipamide] | 0% | 0% | 0% |
| CCN(CCO)S(=O)(=O)C(F)(F)C(F)(F)C(F)(F)C(F)(F)C(F)(F)C(F)(F)C(F)(F)C(F)(F)F [N-Ethyl-N-(2-hydroxyethyl)perfluorooctane sulfonamide] | 12.5% | 0% | 0% |
| O=C(CC(=O)C(F)(F)F)C(F)(F)F [1,1,1,5,5,5-Hexafluoro-2,4-pentanedione] | 0% | 0% | 0% |

From the supplement of paper PMC11281043
